What was measured:
[1] = molecular target: hERG-receptor (Homo sapiens (Human), UniProt Q12809); experiment: HERGBD: inhibition of specific 3H-Dofetilide binding to the hERG-receptor; settings: HEK cell membranes with human ERG, Hill-plot 2-parameter-model
Method in brief: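 Membranes from HEK cells stably expressing human ERG incubated 90 min at RT with 1.5 nmol/l 3H-dofetilide in 20 mM HEPES/0.1 mM KCl pH 7.2, inhibitor in 1% DMSO. Nonspecific binding with […] dofetilide; bound ligand separated by filtration and scintillation counted.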

[2] = test system: Male NMRI mice; experiment: Forced swim test in mice; format: in vivo; settings: p.o. 30 minutes before the test
Procedure: The method, which detects antidepressant activity, follows that described by Porsolt et al (Arch. Int. Pharmacodyn., 229, 327-336, 1977), which is incorporated by reference herein in its entirety.
Mice forced to swim in a situation from which they cannot escape rapidly become immobile. Antidepressants decrease the duration of immobility.
Male NMRI mice (Janvier, France), weighing 20-30 g, were individually placed in a cylinder (height=24 cm; diameter=13 cm) containing 10 cm water (22° C.) from which they cannot escape.
The mice were placed in the water for 6 minutes and the duration of immobility during the last 4 minutes was measured. The latency to the first bout of immobility was also recorded starting from the beginning of the test. 10 mice were studied per group. The test substance was administered p.o. 30 minutes before the test and compared with vehicle control group. The test was performed blind.

Sequence of hERG-receptor (Q12809 whole entry): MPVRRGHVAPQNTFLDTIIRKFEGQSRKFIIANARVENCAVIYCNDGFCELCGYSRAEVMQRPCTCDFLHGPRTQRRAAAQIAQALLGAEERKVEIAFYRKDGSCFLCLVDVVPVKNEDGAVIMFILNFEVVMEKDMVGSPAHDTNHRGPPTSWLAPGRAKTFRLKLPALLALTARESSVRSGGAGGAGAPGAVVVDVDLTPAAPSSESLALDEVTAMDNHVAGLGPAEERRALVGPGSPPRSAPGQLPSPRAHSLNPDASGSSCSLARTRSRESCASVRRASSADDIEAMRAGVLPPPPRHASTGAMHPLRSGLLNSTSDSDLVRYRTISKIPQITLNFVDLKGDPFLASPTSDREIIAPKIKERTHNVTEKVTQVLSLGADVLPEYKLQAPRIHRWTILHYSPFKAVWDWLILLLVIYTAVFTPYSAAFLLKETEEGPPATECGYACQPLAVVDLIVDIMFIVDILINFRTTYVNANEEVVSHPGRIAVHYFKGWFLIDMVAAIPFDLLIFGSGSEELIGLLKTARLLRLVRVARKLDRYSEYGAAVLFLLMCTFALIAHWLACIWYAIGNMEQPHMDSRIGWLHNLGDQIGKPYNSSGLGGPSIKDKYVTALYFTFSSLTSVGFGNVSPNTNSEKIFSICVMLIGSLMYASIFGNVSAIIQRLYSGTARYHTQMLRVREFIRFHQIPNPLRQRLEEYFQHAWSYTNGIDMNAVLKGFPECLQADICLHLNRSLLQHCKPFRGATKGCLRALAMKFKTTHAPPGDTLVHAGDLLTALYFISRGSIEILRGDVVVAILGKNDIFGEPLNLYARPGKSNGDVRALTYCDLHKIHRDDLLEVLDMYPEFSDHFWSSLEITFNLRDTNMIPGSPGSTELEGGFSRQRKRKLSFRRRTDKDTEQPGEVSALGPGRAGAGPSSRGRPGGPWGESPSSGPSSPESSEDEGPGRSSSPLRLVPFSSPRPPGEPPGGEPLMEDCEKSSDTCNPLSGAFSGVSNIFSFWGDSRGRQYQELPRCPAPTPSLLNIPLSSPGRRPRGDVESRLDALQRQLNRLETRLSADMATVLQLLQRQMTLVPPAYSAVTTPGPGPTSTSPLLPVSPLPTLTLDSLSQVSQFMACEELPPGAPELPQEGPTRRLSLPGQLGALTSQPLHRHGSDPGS

Compound: CC(C)c1nccn1Cc1cn(-c2ccc(Cl)cc2)nn1 [Example 23, 1-(4-Chloro-phenyl)-4-(2-isopropyl-imidazol-1-ylmethyl)-1H-[1,2,3]triazole]
- IC50 [1]: 7.94 µM

Compound: Cc1nccn1Cc1cn(-c2ccc(F)c(C(F)F)c2)nn1 [Example 81, 1-(3-Difluoromethyl-4-fluoro-1-phenyl)-4-(2-methyl-imidazol-1-ylmethyl)-1H-[1,2,3]triazole]
- IC50 [1]: 14.3 µM

Compound: Fc1ccc(-n2cc(Cn3ccnc3C3CC3)nn2)cc1C(F)F [Example 82, 4-(2-Cyclopropyl-imidazol-1-ylmethyl)-1-(3-difluoromethyl-4-fluoro-phenyl)-1H-[1,2,3]triazole]
- IC50 [1]: 15.7 µM
- Minimum effective dose (mg/kg p.o.) [2]: 60 mg/kg

Compound: CC(C)c1nccn1Cc1cn(-c2ccc(F)c(C(F)F)c2)nn1 [Example 84, 1-(3-Difluoromethyl-4-fluoro-phenyl)-4-(2-isopropyl-imidazol-1-ylmethyl)-1H-[1,2,3]triazole]
- IC50 [1]: 25.1 µM

Compound: Cc1nccn1Cc1cn(-c2ccc(Cl)c(OC(F)F)c2)nn1 [Example 93, 1-(4-Chloro-3-difluoromethoxy-phenyl)-4-(2-methyl-imidazol-1-ylmethyl)-1H-[1,2,3]triazole]
- IC50 [1]: 9.6 µM

Compound: OCCc1nccn1Cc1cn(-c2ccc(F)c(OC(F)F)c2)nn1 [Example 101, 1-(3-Difluoromethoxy-4-fluoro-phenyl)-4-[2-(2-hydroxy-ethyl)-imidazol-1-ylmethyl]-1H-[1,2,3]triazole]
- IC50 [1]: 36.7 µM
- Minimum effective dose (mg/kg p.o.) [2]: >30 mg/kg

Compound: Cn1nccc1Cc1cn(-c2ccc(F)c(Cl)c2)nn1 [Example 109, 1-(3-Chloro-4-fluoro-phenyl)-4-(2-methyl-2H-pyrazol-3-ylmethyl)-1H-[1,2,3]triazole]
- IC50 [1]: > 100 µM

Compound: Nc1nccn1Cc1cn(-c2ccc(Cl)c(C(F)F)c2)nn1 [Example 113A, 4-(2-amino-imidazol-1-ylmethyl)-1-(4-chloro-3-difluoromethyl-phenyl)-1H-[1,2,3]triazole]
- IC50 [1]: 3.09 µM

Compound: Nc1nccn1Cc1cn(-c2ccc(F)c(C(F)F)c2)nn1 [Example 113B, 4-(2-amino-imidazol-1-ylmethyl)-1-(4-fluoro-3-difluoromethyl-phenyl)-1H-[1,2,3]triazole]
- IC50 [1]: 11 µM

Compound: CC(F)(F)c1cc(-n2cc(Cn3ccnc3N)nn2)ccc1F [Example 114]
- IC50 [1]: 4.31 µM
